Assays:
[1] = biological target: T1, NLRP3 (Homo sapiens, UniProt Q96P20); assay: THP-1 cells pyroptosis assay (LPS + nigericin, resazurin readout); format: cell-based; set-up: Seed THP-1 cells (25,000 cells/well) containing 1.0 μg/ml LPS; host or cells: THP-1 cells; conditions: NLRP3 inhibitory activity, 1.0 μg/ml LPS, 3 hrs compound, nigericin 5 μM 1 hr
Method: THP-1 cells (ATCC #TIB-202) were grown in RPMI containing L-glutamine (Gibco #11835) supplemented with 1 mM sodium pyruvate (Sigma #S8636) and penicillin (100 units/ml)/streptomycin (0.1 mg/ml) (Sigma #P4333) in 10% Fetal Bovine Serum (FBS) (Sigma #F0804). The cells were routinely passaged and grown to confluency (˜10^6 cells/ml). On the day of the experiment, THP-1 cells were harvested and resuspended into RPMI medium (without FBS). The cells were then counted and viability (>90%) checked by Trypan blue (Sigma #T8154). Appropriate dilutions were made to give a concentration of 625,000 cells/ml. To this diluted cell solution was added LPS (Sigma #L4524) to give a […] Final Assay Concentration (FAC). 40 μl of the final preparation was aliquoted into each well of a 96-well plate. The plate thus prepared was used for compound screening.
The following method step-by-step assay was followed for compound screening. • 1. Seed THP-1 cells (25,000 cells/well) containing 1.0 μg/ml LPS in 40 μl of RPMI medium (without FBS) in 96-well, black walled, clear bottom cell culture plates coated with poly-D-lysine (VWR #734-0317) • 2. Add 5 μl compound (8 points half-log dilution, with 10 μM top dose) or vehicle (DMSO 0.1% FAC) to the appropriate wells • 3. Incubate for 3 hrs at 37° C., 5% CO2 • 4. Add 5 μl nigericin (Sigma #N7143) (FAC 5 μM) to all wells • 5. Incubate for 1 hr at 37° C., 5% CO2 • 6. At the end of the incubation period, spin plates at 300×g for 3 mins and remove supernatant • 7. Then add 50 μl of resazurin (Sigma #R7017) (FAC 100 μM resazurin in RPMI medium without FBS) and incubate plates for a further 1-2 hrs at 37° C. and 5% CO2 • 8. Plates were read in an Envision reader at Ex 560 nm and Em 590 nm • 9. IC50 data is fitted to a non-linear regression equation (log inhibitor vs response-variable slope 4-parameters)

[2] = biological target: T1, NLRP3; assay: Human whole blood IL-1β release assay (LPS + nigericin, AlphaLisa); format: cell-based; set-up: Plate out 80 μl of whole blood containing 1 μg/ml of LPS; from tissue; host or cells: human whole blood from healthy volunteer donors; conditions: NLRP3 inhibitory activity, 1 μg/ml LPS, 3 hrs compound, nigericin 10 μM 1 hr, read-out: HWB IC50
Method: For systemic delivery, the ability to inhibit NLRP3 when the compounds are present within the bloodstream is of great importance. For this reason, the NLRP3 inhibitory activity of a number of compounds in human whole blood was investigated in accordance with the following protocol.
Human whole blood in Li-heparin tubes was obtained from healthy donors from a volunteer donor panel. • 1. Plate out 80 μl of whole blood containing 1 μg/ml of LPS in 96-well, clear bottom cell culture plate (Corning #3585) • 2. Add 10 μl compound (8 points half-log dilution with 10 μM top dose) or vehicle (DMSO 0.1% FAC) to the appropriate wells • 3. Incubate for 3 hrs at 37° C., 5% CO2 • 4. Add 10 μl nigericin (Sigma #N7143) (10 μM FAC) to all wells • 5. Incubate for 1 hr at 37° C., 5% CO2 • 6. […] IL-1β was measured according to the manufacturer protocol (Perkin Elmer-AlphaLisa IL-1 Kit AL220F-5000) • 8. IC50 data is fitted to a non-linear regression equation (log inhibitor vs response-variable slope 4-parameters)

T1 sequence (Q96P20 whole entry): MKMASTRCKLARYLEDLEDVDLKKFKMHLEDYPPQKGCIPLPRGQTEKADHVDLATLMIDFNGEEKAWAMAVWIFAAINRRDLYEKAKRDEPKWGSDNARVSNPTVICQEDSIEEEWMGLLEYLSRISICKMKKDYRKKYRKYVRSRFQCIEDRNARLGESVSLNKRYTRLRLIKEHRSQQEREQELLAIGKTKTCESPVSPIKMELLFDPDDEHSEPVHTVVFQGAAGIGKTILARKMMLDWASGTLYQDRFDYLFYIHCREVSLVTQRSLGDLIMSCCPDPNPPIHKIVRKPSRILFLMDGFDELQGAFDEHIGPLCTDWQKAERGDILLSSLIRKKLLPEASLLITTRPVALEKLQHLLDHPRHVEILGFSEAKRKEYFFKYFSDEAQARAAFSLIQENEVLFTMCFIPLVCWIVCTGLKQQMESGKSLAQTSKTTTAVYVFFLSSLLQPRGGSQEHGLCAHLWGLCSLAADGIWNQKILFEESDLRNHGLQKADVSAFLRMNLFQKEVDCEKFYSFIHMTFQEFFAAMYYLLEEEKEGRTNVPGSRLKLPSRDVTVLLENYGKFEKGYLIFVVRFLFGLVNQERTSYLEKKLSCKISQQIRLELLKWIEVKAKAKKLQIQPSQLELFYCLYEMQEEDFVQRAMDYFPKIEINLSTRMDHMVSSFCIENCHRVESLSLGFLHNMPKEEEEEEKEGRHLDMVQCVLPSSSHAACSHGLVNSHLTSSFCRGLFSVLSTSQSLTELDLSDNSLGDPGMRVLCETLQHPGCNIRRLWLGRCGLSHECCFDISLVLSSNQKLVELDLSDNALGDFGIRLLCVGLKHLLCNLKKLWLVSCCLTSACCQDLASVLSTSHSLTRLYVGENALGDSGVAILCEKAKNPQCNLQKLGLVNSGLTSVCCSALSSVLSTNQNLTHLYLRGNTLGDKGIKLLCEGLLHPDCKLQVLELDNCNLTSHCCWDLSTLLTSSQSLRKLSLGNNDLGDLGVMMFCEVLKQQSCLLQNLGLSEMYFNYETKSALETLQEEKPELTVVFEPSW

| SMILES | IC50 [1] [µM] | IC50 [2] [µM] |
| --- | --- | --- |
| CC1(C)COc2cc(ccn2)-c2ccc3c(c2CC(=O)NS(=O)(=O)c2nn1cc2F)CCC3 [Example 6, 16-fluoro-19,19-dimethyl-21-oxa-14λ^6-thia-13,18,23,27-tetraazapentacyclo[20.3.1.1^15,18.0^2,10.0^5,9]heptacosa-1(25),2,4,9,15(27),16,22(26),23-octaene-12,14,14-trione] | 5 to 10 | – |
| CC(C)c1cc(F)cc2c1CC(=O)NS(=O)(=O)c1nn(cc1C(=O)N(C)C)C(C)(C)COc1cc-2ccn1 [Example 50, 4-fluoro-6-isopropyl-N,N,16,16-tetramethyl-9,11,11-trioxo-18-oxa-11λ^6-thia-10,15,20,24-tetrazatetracyclo[17.3.1.1^12,15.0^2,7]tetracosa-1(23),2(7),3,5,12(24),13,19, 21-octaene-13-carboxamide] | 5 to 10 | – |
| CC(C)c1cccc2c1CC(=O)NS(=O)(=O)c1cccc(c1)C(C)(C)COc1cc-2ccn1 [Example 28] | 1 to 5 | – |
| CC(C)c1c(F)c(C#N)cc2c1CC(=O)NS(=O)(=O)c1cnn(c1)C(C)(C)COc1cc-2ccn1 [Example 48, 5-fluoro-6-isopropyl-16,16-dimethyl-9,11,11-trioxo-18-oxa-11λ^6-thia-10,14,15,20-tetrazatetracyclo[17-3-1-1^12,15.0^2,7]tetracosa-1(23),2(7),3,5,12(24),13,19,21-octaene-4-carbonitrile] | 1 to 5 | – |
| CC(C)c1cccc2c1CC(=O)NS(=O)(=O)c1cccc(c1)CCOc1cc-2ccn1 [Example 7] | 1 to 5 | – |
| CC(C)c1cc(F)cc2c1CC(=O)NS(=O)(=O)c1nn(cc1F)C1(CC1)COc1cc-2ccn1 [Example 20] | 0.5 to 1 | 1 to 5 |
| CC(C)c1cccc2c1CC(=O)NS(=O)(=O)N1CCCC(C1)N(C)CCOc1cc-2ccn1 (stereo not shown) [Example 45, 17-methyl-6-(propan-2-yl)-20-oxa-11λ^6-thia-10,12,17,22-tetraaza-tetracyclo[19.3.1.1^12,16.0^2,7]hexacosa-1(24),2(7),3,5,21(25),22-hexaene-9,11,11-trione] | 1 to 5 | – |
| CC(C)c1cc(C#N)cc2c1CC(=O)NS(=O)(=O)c1cnn(c1)C(C)(C)COc1cc-2ccn1 [Example 46, 6-isopropyl-16,16-dimethyl-9,11,11-trioxo-18-oxa-11λ^6-thia-10,14,15,20-tetrazatetra-cyclo[17.3.1.1^12,15.0^2,7]tetracosa-1(23),2(7),3,5,12(24),13,19,21-octaene-4-carbonitrile] | 1 to 5 | – |
| COCc1cc2c(c(C(C)C)c1F)CC(=O)NS(=O)(=O)c1cnn(c1)C(C)(C)COc1cc-2ccn1 [Example 52, 5-fluoro-6-isopropyl-4-(methoxymethyl)-16,16-dimethyl-11,11-dioxo-18-oxa-11λ^6-thia-10,14,15,20-tetrazatetracyclo[17.3.1.1^12,15.0^2,7]tetracosa-1(23),2(7),3,5, 12(24),13,19,21-octaen-9-one] | 0.1 to 0.5 | – |
| COCc1cc2c(c(C(C)C)c1)CC(=O)NS(=O)(=O)c1cnn(c1)C(C)(C)COc1cc-2ccn1 [Example 51, 6-isopropyl-4-(methoxymethyl)-16,16-dimethyl-11,11-dioxo-18-oxa-11λ^6-thia-10,14,15,20-tetrazatetracyclo[17-3-1-1^12,15.0^2,7]tetracosa-1(23),2(7),3,5,12(24),13,19, 21-octaen-9-one] | ≤ 0.1 | – |
| CC(C)c1cc(F)cc2c1CC(=O)NS(=O)(=O)c1nn(c(CN3CCN(C)CC3)c1F)C(C)(C)COc1cc-2ccn1 [Example 53, 4,13-difluoro-6-isopropyl-16,16-dimethyl-14-[(4-methylpiperazin-1-yl)-methyl]-11,11-dioxo-18-oxa-11λ^6-thia-10,15,20,24-tetrazatetracyclo[17.3.1.1^12,15.0^2,7]-tetracosa-1(23),2(7),3,5,12(24),13,19,21-octaen-9-one] | ≤ 0.1 | – |
| O=C1Cc2c(ccc3c2CCC3)-c2ccnc(c2)OCCc2cccc(c2)S(=O)(=O)N1 [Example 9] | 5 to 10 | – |
| Cc1nn2c(C)c1S(=O)(=O)NC(=O)Cc1c(cc(F)cc1C(C)C)-c1ccnc(c1)OCC2(C)C [Example 23] | 5 to 10 | – |
| CC(C)c1cc(F)cc2c1CC(=O)NS(=O)(=O)c1nn(c(CN3CCOCC3)c1F)C(C)(C)COc1cc-2ccn1 [Example 55, 4,13-difluoro-6-isopropyl-16,16-dimethyl-14-(morpholinomethyl)-11,11-dioxo-18-oxa-11λ^6-thia-10,15,20,24-tetrazatetracyclo[17.3.1.1^12,15.0^2,7]tetracosa-1(23),2(7),3,5,12(24),13,19,21-octaen-9-one] | 0.1 to 0.5 | – |
| CC(C)c1c(F)c(OC(F)F)cc2c1CC(=O)NS(=O)(=O)c1cnn(c1)C(C)(C)COc1cc-2ccn1 [Example 49, 4-(difluoromethoxy)-5-fluoro-6-isopropyl-16,16-dimethyl-11,11-dioxo-18-oxa-11λ^6-thia-10,14,15,20-tetrazatetracyclo[17.3.1.1^12,15.0^2,7]tetracosa-1(23),2(7),3,5, 12(24),13,19,21-octaen-9-one] | 0.5 to 1 | – |
| CC(C)c1cc(F)cc2c1CC(=O)NS(=O)(=O)c1cccnc1OCCCOc1cc-2ccn1 [Example 18] | 1 to 5 | – |
| CC(C)c1cccc2c1CC(=O)NS(=O)(=O)c1nn(cc1F)CCOc1cc-2ccn1 [Example 8] | 1 to 5 | – |
| CC(C)c1cc(F)cc2c1CC(=O)NS(=O)(=O)c1nn(cc1F)CCOc1cc-2ccn1 [Example 14] | 1 to 5 | – |
| CC(C)c1cc(F)cc2c1CC(=O)NS(=O)(=O)c1cnn(c1)C(C)(C)CNc1cc-2ccn1 [Example 56, 4-fluoro-6-isopropyl-16,16-dimethyl-11,11-dioxo-11λ^6-thia-10,14,15,18, 20-pentazatetracyclo[17.3.1.1^12,15.0^2,7]tetracosa-1(23),2(7),3,5,12(24),13,19,21-octaen-9-one] | ≤ 0.1 | – |
| CC(C)c1cc(F)cc2c1CC(=O)NS(=O)(=O)c1nn(c(C(=O)N3CCN(C)CC3)c1F)C(C)(C)COc1cc-2ccn1 [Example 54, 4,13-difluoro-6-isopropyl-16,16-dimethyl-14-(4-methylpiperazine-1-carbonyl)-11,11-dioxo-18-oxa-11λ^6-thia-10,15,20,24-tetrazatetracyclo[17.3.1.1^12,15.0^2,7]-tetracosa-1(23),2(7),3,5,12(24),13,19,21-octaen-9-one] | 0.5 to 1 | – |
| CC(C)c1cccc2c1CC(=O)NS(=O)(=O)c1ccnn1CCCCCOc1cc-2ccn1 [Example 43, 6-(propan-2-yl)-22-oxa-11λ^6-thia-10,15,16,24-tetraazatetracyclo-[21.3.1.0^2,7.0^12,16]heptacosa-1(26),2(7),3,5,12,14,23(27),24-octaene-9,11,11-trione] | 1 to 5 | – |
| CC(C)c1cc(F)cc2c1CC(=O)NS(=O)(=O)c1cc(ccc1F)CCOc1cc-2ccn1 [Example 26] | 1 to 5 | – |
| CC(C)c1cc(F)cc2c1CC(=O)NS(=O)(=O)c1cc(cc(C3CC3)c1)CCOc1cc-2ccn1 [Example 30, 14-cyclopropyl-4-fluoro-6-(propan-2-yl)-19-oxa-11λ^6-thia-10,21-diazatetracyclo[18.3.1.11^2,16.0^2,7]pentacosa-1(23),2(7),3,5,12(25),13,15,20(24),21-nonaene-9,11,11-trione] | 0.5 to 1 | – |
| CC(C)c1cc(OC(F)F)cc2c1CC(=O)NS(=O)(=O)c1cnn(c1)C(C)(C)COc1cc-2ccn1 [Example 47, 4-(difluoromethoxy)-6-isopropyl-16,16-dimethyl-11,11-dioxo-18-oxa-11λ^6-thia-10,14,15,20-tetrazatetracyclo[17-3-1-1^12,15.0^2,7]tetracosa-1(23),2(7),3,5,12(24), 13,19,21-octaen-9-one] | 0.1 to 0.5 | – |

Reference: patent US20220389031A1, “MACROCYCLIC SULFONYLAMIDE DERIVATIVES USEFUL AS NLRP3 INHIBITORS” (Inflazome Limited, priority 2019, published 2022)
